Consider 1 compound from US11130741B2 (Bioimics AB, priority 2016, dated 2021).

≈ marks a conversion by molar mass, not a printed value. Read-outs that look alike come from different tables or passages of the source.

The test system of assay [1] is E. coli JW5503. Put plainly: MIC, E. coli JW5503. It is filed as cell-based. As to conditions: Escherichia coli, JW5503, read-out: MIC E. coli JW5503.
Assay [2] relates to E. faecium ATCC 700221. Kind of assay: MIC, E. faecium ATCC 700221. Particulars: Enterococcus faecium, ATCC700221; read-out: MIC E. faecium ATCC 700221. It is filed as cell-based.
Assay [3] deals with Escherichia coli (ATCC25922). Kind of assay: MIC, broth microdilution (CLSI), Escherichia coli ATCC25922. (In general: Broth dilution looks for growth in wells or tubes with falling amounts of substance.)
Experimental: Initial minimal inhibitory concentration (MIC) tests were made on two bacterial strains: • Escherichia coli (ATCC25922) • Staphylococcus aureus (ATCC25923).
Minimal Inhibitory Concentration (MIC)
MIC values were determined using the standard broth microdilution procedure based on the guidelines by the Clinical and Laboratory Standards Institute (CLSI). Briefly, the compounds were dissolved in DMSO to 10 mM. They were diluted in cation-adjusted Mueller-Hinton broth (CAMHB) to four times the highest concentration tested. A serial 2-fold dilution in CAMHB was done in microdilution plates. The inoculum of bacterial strain to be tested was prepared by making a suspension of colonies from an 18 to 24 hours old plate in CAMHB. The inoculum was diluted so that, after inoculation, each well contained approximately 5×10^5 CFU/mL. To a volume of 50 μl compound in CAMHB an equal volume of inoculum was added. The tray was sealed in a plastic bag and incubated at 35° C. for 16 to 20 hours. To aid in the detection of growth the dye resazurin was added to a final concentration 0.001% and incubated at room temperature for 1 h. Reduction of resazurin, and therefore bacterial growth, was seen as a change from blue to pink.
The subject of assay [4] is P. aeruginosa NTUH-974 (MDR). Put plainly: MIC, P. aeruginosa NTUH-974 (MDR). It is filed as cell-based. As to conditions: Pseudomonas aeruginosa, read-out: MIC P. aeruginosa NTUH-974 (MDR).
Assay [5] concerns Enterococcus faecalis (ATCC29212). Kind of assay: MIC, broth microdilution (CLSI), Enterococcus faecalis ATCC29212. It is filed as cell-based. As to conditions: read-out: MIC E. faecalis ATCC 29212.
Assay [6] has as its system Pseudomonas aeruginosa (ATCC27853). Kind of assay: microbe, parasite or virus in culture. The class given is cell-based. Particulars: read-out: MIC P. aeruginosa ATCC 27853.
In assay [7] the test system is H. influenzae ATCC 49247. Kind of assay: MIC, H. influenzae ATCC 49247. It is filed as cell-based. As to conditions: Haemophilus influenzae, ATCC49247.
Assay [8] deals with Staphylococcus aureus subsp. aureus (ATCC29213). Kind of assay: MIC, broth microdilution (CLSI), Staphylococcus aureus subsp. aureus ATCC29213. It is filed as cell-based. As to conditions: ATCC29213, Table 16, read-out: MIC S. aureus ATCC 29213.
The test system of assay [9] is K. pneumoniae ATCC 43816. Put plainly: MIC, K. pneumoniae ATCC 43816. The class given is cell-based. As to conditions: Klebsiella pneumoniae, ATCC43816.
Assay [10] relates to S. pneumoniae ATCC 49619. Kind of assay: MIC, S. pneumoniae ATCC 49619. It is filed as cell-based. Particulars: Streptococcus pneumoniae, ATCC49619.
For assay [11], the system named is A. baumannii ATCC 17978. Put plainly: MIC, A. baumannii ATCC 17978. It is filed as cell-based. As to conditions: Acinetobacter baumannii, ATCC17978.
In assay [12] the test system is N. gonorrhoeae 612501. Put plainly: MIC, N. gonorrhoeae 612501. Particulars: Neisseria gonorrhoeae. The class given is cell-based.
Assay [13] relates to S. aureus MRSA ATCC 33591. Kind of assay: MIC, S. aureus MRSA ATCC 33591. It is filed as cell-based. Particulars: Staphylococcus aureus; read-out: MIC S. aureus MRSA ATCC 33591.
For assay [14], the system named is S. aureus ATCC 29213. Put plainly: MIC, S. aureus ATCC 29213 + 50% HS. It is filed as cell-based. Particulars: Staphylococcus aureus, ATCC29213.
In assay [15] the test system is E. coli RNase P RNA, M1 RNA. Put plainly: Initial inhibition of RNase P activity (normalised cleavage of pATSerUG at maximum compound concentration). Particulars: at 8 μM; normalised cleavage (cleavage with compound / without compound). The class given is biochemical.
The test system of assay [16] is Staphylococcus aureus (ATCC25923). Kind of assay: MIC, broth microdilution (CLSI), Staphylococcus aureus ATCC25923. As to conditions: ATCC25923, read-out: S. aureus ("Clinical") MIC.

For the compound `Nc1cc(C(F)(F)F)cc2c1N(CCCn1ccnc1)c1ccccc1S2` [compound 44, 10-(3-(1H-imidazol-1-yl)propyl)-3-(trifluoromethyl)-10H-phenothiazin-1-amine], the MIC is 8 µg/mL (≈ 20.5 µM) in [1]; 8 µg/mL (≈ 20.5 µM) in [2]; over 100 µg/mL in assay [3] (ATCC25922, read-out: E. coli MIC, Table 15, NI = No inhibition); over 128 µg/mL in [3] (ATCC25922, read-out: MIC E. coli ATCC 25922); over 128 µg/mL in [4]; 16 µg/mL (≈ 41 µM) in assay [5]. In addition, the MIC in [6] is over 128 µg/mL; in assay [7], 16 µg/mL (≈ 41 µM); in assay [8], 4 µg/mL (≈ 10.2 µM); in assay [9], over 128 µg/mL; in [10], 16 µg/mL (≈ 41 µM); in assay [11], over 128 µg/mL. For the same compound, the MIC in [12] was 2 µg/mL (≈ 5.12 µM); in [13] it was 64 µg/mL (≈ 164 µM); in assay [14], over 128 µg/mL; in assay [16], 2 µg/mL (≈ 5.12 µM). The “Normalised RNase P cleavage (fraction of control)” value in [15] was 1.06.
